The text below walks through data of article PMC9495676, “Evaluation of the Antimicrobial Properties of a Natural Peptide from Vespa mandarinia Venom and Its Synthetic Analogues as a Possible Route to Defeat Drug-Resistant Microbes” (Biology, 2022).

In one series the test system is MRSA (ATCC 12493). The series can be described thus: MIC/MBC broth dilution assay. It counts as cell-based, methicillin-resistant Staphylococcus aureus. To be noted: 37 °C overnight, nine replicates from three independent experiments. The method, then: (§1) The minimal inhibitory concentration assay (MIC) and minimum bactericidal concentration assay (MBC) of the peptide were carried out using the broth dilution method. Seven microbes, including the Gram-positive bacteria, S. aureus (NCTC 6538), MRSA, (ATCC 12493) and Enterococcus faecalis (E. faecalis) (NCTC 12697); Gram-negative bacteria, E. coli (ATCC 8739), Klebsiella pneumoniae (K. pneumoniae) (ATCC 43816) and Pseudomonas aeruginosa (P. aeruginosa) (ATCC 9027); and a yeast, C. albicans (ATCC 10231), were used in these assays and incubated with peptide at 37 °C overnight. The growth culture media were Yeast Extract Peptone Dextrose for C. albicans and Mueller–Hinton broth for others. The concentration of microbes was detected by measuring OD values through the use of a UV spectrophotometer set to 550 nm. C. albicans assays required 10^6 colony forming units (CFU)/mL, while others were incubated with 10^8 CFU/mL and verified by viable cell counts. All of the inocula were diluted to final concentrations of 5 × 10^5 CFU/mL. The concentration of peptides ranged from 1 µM to 512 µM (C = 1, 2, 4, 8, 16, 32, 64, 128, 256, 512 µM). Two mg/mL of amphotericin B for C. albicans and 2 mg/mL norfloxacin for others were applied as positive controls, and 1% of dimethyl sulphoxide (DMSO) was applied as a vehicle control. The 96-well plates were analysed at 550 nm using an ELISA plate reader (Biolise BioTek EL808, Winooski, VT, USA).
(§2) After analysing the growth situation of microbial cultures from each concentration, 10 µL of the inhibited cultures (the peptide concentration ranges from MIC to maximum concentration) were selected to sub-culture onto the Mueller–Hinton agar (MHA) plates. The plates were incubated overnight at 37 °C. After incubation, the lowest concentration on the MHA plates with no bacterial growth was regarded as the MBC value.

The next series has as its system K. pneumoniae biofilm. Briefly: Antibiofilm assay (MBIC/MBEC), crystal violet. To be noted: LB, 595 nm, nine replicates from three independent experiments. In kind it is cell-based, Klebsiella pneumoniae. The method, then:
(§3) The minimal biofilm inhibitory concentration assay (MBIC) and minimal biofilm eradication concentration assay (MBEC) were performed on each of the peptides using Gram-positive bacteria cultured in Tryptic Soy Broth (TSB, Sigma-Aldrich, St. Louis, MO, USA) and Gram-negative bacteria cultured in Luria-Bertani broth (LB, Thermo Fisher Scientific, Carlsbad, CA, USA). The seeding concentration in 96-well plates of bacterial suspension was the same as for the anti-bacterial assay, and a UV spectrophotometer set to 550 nm was used to detect OD values. Melittin was used as a positive control. For MBIC, peptide solution was mixed with bacterial suspension at first to test if it could inhibit the growth of biofilm. However, for minimal biofilm eradication (MBEC) assays, biofilm was formed in 96-well plates at 37 °C for 24 h after seeding bacteria; afterwards, it was washed by sterile PBS twice. Peptide solutions, prepared with culture broth, were added to […] the biofilms by incubating at 37 °C for 24 h. Both plates were washed by PBS twice and stained by 125 µL 0.1% crystal violet solution (Sigma-Aldrich, Gillingham, UK). The stain was dissolved in 150 µL 30% acetic acid (Sigma-Aldrich, Gillingham, UK). The absorbance values of 100 µL solution from each well, were analysed by using a Synergy HT plate reader (Biotech, Minneapolis, MN, USA) set at 595 nm.

Another series has as its system P. aeruginosa biofilm. The series can be described thus: Antibiofilm assay (MBIC/MBEC), crystal violet. To be noted: LB, 595 nm, nine replicates from three independent experiments. In kind it is cell-based, Pseudomonas aeruginosa. The method, then: as §3
The test system of another series is Gram-positive bacteria. Briefly: MIC broth dilution assay, summary over Gram-positive bacteria. It counts as cell-based. To be noted: range over S. aureus, MRSA, E. faecalis. Here is the method:
as §1, with “Two mg/mL of amphotericin B for C. albicans and 2 mg/mL norfloxacin for others were applied as positive controls, and 1% of dimethyl sulphoxide (DMSO) was applied as a vehicle control.” left out, “USA). […]” for “USA).”
Background: In broth dilution the organism is exposed to a series of concentrations in liquid medium.

Another series concerns MRSA biofilm. Briefly: Antibiofilm assay (MBIC/MBEC), crystal violet. To be noted: TSB, 595 nm, nine replicates from three independent experiments. In kind it is cell-based, methicillin-resistant Staphylococcus aureus. Here is the method: as §3
The test system of series [1] is P. aeruginosa (ATCC 9027). Briefly: MIC/MBC broth dilution assay. In kind it is cell-based, Pseudomonas aeruginosa. To be noted: broth dilution, Mueller–Hinton broth, 5 × 10^5 CFU/mL, 37 °C overnight, OD 550 nm, nine replicates from three independent experiments. The method, then:
as §1, §2

The next series concerns S. aureus biofilm. The series can be described thus: Antibiofilm assay (MBIC/MBEC), crystal violet. In kind it is cell-based, Staphylococcus aureus. To be noted: TSB, 595 nm, nine replicates from three independent experiments. Here is the method:
as §3

In another series the test system is E. faecalis (NCTC 12697). The series can be described thus: MIC/MBC broth dilution assay. In kind it is cell-based, Enterococcus faecalis. To be noted: 37 °C overnight, nine replicates from three independent experiments. Here is the method: as §1, §2
The test system of a further series is horse erythrocytes. The series can be described thus: Haemolysis assay. In kind it is cell-based. As to conditions: 37 °C, 2 h. The method, then:
Defibrinated horse erythrocytes (TCS Biosciences Ltd., Buckingham, UK) were used in the haemolysis assay. Peptides, from 1 μM to 512 μM, were tested with a 4% (v/v) erythrocyte suspension and were incubated at 37 °C for 2 h, while 1% Triton X-100 (Sigma-Aldrich, St. Louis, MO, USA) was acted as a positive control and phosphate-buffered saline (PBS) was used as a negative control. The sample supernatants were analysed at 550 nm on an ELISA plate reader (Biolise BioTek EL808, Winooski, VT, USA).

Series [2] has as its system K. pneumoniae (ATCC 43816). Briefly: MIC/MBC broth dilution assay. As to conditions: broth dilution, Mueller–Hinton broth, 5 × 10^5 CFU/mL, 37 °C overnight, OD 550 nm, nine replicates from three independent experiments. In kind it is cell-based, Klebsiella pneumoniae. The method, then:
as §1, §2

In a further series the test system is E. coli (ATCC 8739). The series can be described thus: MIC/MBC broth dilution assay. As to conditions: 37 °C overnight, nine replicates from three independent experiments. It counts as cell-based, Escherichia coli. Here is the method:
as §1, §2

For a further series, the system named is S. aureus (NCTC 6538). The series can be described thus: MIC/MBC broth dilution assay. It counts as cell-based, Staphylococcus aureus. As to conditions: 37 °C overnight, nine replicates from three independent experiments. The method, then:
as §1, §2

The test system of a further series is E. coli biofilm. Briefly: Antibiofilm assay (MBIC/MBEC), crystal violet. In kind it is cell-based, Escherichia coli. To be noted: LB, 595 nm, nine replicates from three independent experiments. Here is the method: as §3
The subject of the next series is C. albicans (ATCC 10231). The series can be described thus: MIC/MBC broth dilution assay. To be noted: sub-culture on agar plates, 37 °C overnight, nine replicates from three independent experiments. In kind it is cell-based, Candida albicans. The method, then: as §1, §2
Where [3] appears, read: broth dilution, Mueller–Hinton broth, 5 × 10^5 CFU/mL, OD 550 nm.

No end group written: not given here.

The MIC is the lowest concentration that inhibits growth of the organism. A lower MIC goes with a more susceptible organism. Consider FLPIIGKLLSGLL-NH2 [VM], for which the MIC against MRSA (ATCC 12493) (setting [3]) is 4 µM; in series [1], above 512 µM; with E. faecalis (NCTC 12697) (setting [3]), 16 µM; in series [2], above 512 µM; in the series with E. coli (ATCC 8739) (setting [3]) it was 256 µM; in the series on S. aureus (NCTC 6538) (setting [3]) it was 4 µM. Moreover, the MBC with MRSA (ATCC 12493) (sub-culture on MHA) is 4 µM; in the series on E. faecalis (NCTC 12697) (sub-culture on MHA), 16 µM; against E. coli (ATCC 8739) (sub-culture on MHA), 256 µM; against S. aureus (NCTC 6538) (sub-culture of inhibited cultures on MHA), 4 µM; against C. albicans (ATCC 10231) it was 32/32 µM. Also, the MBIC is >512/>512 µM with K. pneumoniae biofilm (K. pneumoniae biofilm inhibition); >512/>512 µM in the series with P. aeruginosa biofilm (P. aeruginosa biofilm inhibition); 8 µM in the series on MRSA biofilm (MRSA biofilm inhibition); 8 µM in the series on S. aureus biofilm (S. aureus biofilm inhibition); >512/>512 µM in the series on E. coli biofilm (E. coli biofilm inhibition). Also, the MBEC in the series on K. pneumoniae biofilm (K. pneumoniae preformed 24 h biofilm, peptide 24 h at 37 °C) is >512/>512 µM; with P. aeruginosa biofilm (P. aeruginosa preformed 24 h biofilm, peptide 24 h at 37 °C), >512/>512 µM; in the series on MRSA biofilm (MRSA preformed 24 h biofilm, peptide 24 h at 37 °C) it was 64 µM; with S. aureus biofilm (S. aureus preformed 24 h biofilm, peptide 24 h at 37 °C) it was 64 µM; in the series on E. coli biofilm (E. coli preformed 24 h biofilm, peptide 24 h at 37 °C), >512/>512 µM. Besides, in the series on Gram-positive bacteria, the “MICs against Gram-positive bacteria” value lay in the range of 4 to 16 µM. In addition, in the series with horse erythrocytes (4% (v/v) defibrinated horse erythrocytes, 550 nm, normalised to 1% Triton X-100, calculated from the haemolysis curve), the “HC50 (peptide concentration that caused 50% lysis of horse red blood cells)” value is 44.43 µM. The “maximum concentration that caused less than 10% haemolysis” value with horse erythrocytes (4% horse erythrocytes) is listed as 16 µM.
